Measurements published in PMC7366380, “Discovery of a Potent and Selective Covalent Inhibitor and Activity-Based Probe for the Deubiquitylating Enzyme UCHL1, with Antifibrotic Activity” (Journal of the American Chemical Society, 2020).
Several values for one entry are separate records, joined by “and”; a condition that tells them apart may be missing. Equal entries are not always repeated.

Assays:
Assay in all cases: In-cell proteome-wide competitive ABPP, HEK293: other DUBs and proteins
[1] = target: DUBs and other proteins in HEK293 cells (Homo sapiens, UniProt O00303); conditions: for Log2 reporter intensity values, EIF3F: TMT replicates; for Log2 reporter intensity values / Log2 reporter intensity values: EIF3F: replicates A-C; for Log2 reporter intensity values: EIF3F: competition with ABP 2, DMSO substract (FC)
[2] = target: T1, DUBs and other proteins in HEK293 cells (Homo sapiens, UniProt P51665); conditions: replicates A-C; for Log2 reporter intensity values: PSMD7: competition with ABP 2, DMSO substract (FC); for Log2 reporter intensity values: PSMD7, DMSO subtracted
T1 sequence (P51665 1-324): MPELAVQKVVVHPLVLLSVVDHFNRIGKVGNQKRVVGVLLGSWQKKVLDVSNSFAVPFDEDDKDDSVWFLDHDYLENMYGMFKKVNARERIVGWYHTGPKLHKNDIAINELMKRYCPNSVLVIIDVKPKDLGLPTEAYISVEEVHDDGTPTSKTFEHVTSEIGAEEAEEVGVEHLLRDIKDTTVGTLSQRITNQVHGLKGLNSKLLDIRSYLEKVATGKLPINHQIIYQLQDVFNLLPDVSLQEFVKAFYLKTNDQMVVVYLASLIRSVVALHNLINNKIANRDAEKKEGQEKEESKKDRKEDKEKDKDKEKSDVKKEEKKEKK

[3] = target: DUBs and other proteins in HEK293 cells (Homo sapiens, UniProt Q7L5N1); conditions: for Log2 reporter intensity values, COPS6: TMT replicates; for Log2 reporter intensity values / Log2 reporter intensity values: COPS6: replicates A-C; for Log2 reporter intensity values: COPS6: competition with ABP 2, DMSO substract (FC)
[4] = target: DUBs and other proteins in HEK293 cells (Homo sapiens, UniProt Q93008); conditions: replicates A-C; for Log2 reporter intensity values: USP9X;USP9Y: competition with ABP 2, DMSO substract (FC); for Log2 reporter intensity values: USP9X;USP9Y, DMSO subtracted
[5] = target: DUBs and other proteins in HEK293 cells (Homo sapiens, UniProt Q96BN8); conditions: replicates A-C; for Log2 reporter intensity values: OTULIN: competition with ABP 2, DMSO substract (FC); for Log2 reporter intensity values: OTULIN, DMSO subtracted
[6] = target: T2, DUBs and other proteins in HEK293 cells (Homo sapiens, UniProt Q96K76); conditions: replicates A-C; for Log2 reporter intensity values: USP47: competition with ABP 2, DMSO substract (FC); for Log2 reporter intensity values: USP47, DMSO subtracted
T2 sequence (Q96K76 1-1375): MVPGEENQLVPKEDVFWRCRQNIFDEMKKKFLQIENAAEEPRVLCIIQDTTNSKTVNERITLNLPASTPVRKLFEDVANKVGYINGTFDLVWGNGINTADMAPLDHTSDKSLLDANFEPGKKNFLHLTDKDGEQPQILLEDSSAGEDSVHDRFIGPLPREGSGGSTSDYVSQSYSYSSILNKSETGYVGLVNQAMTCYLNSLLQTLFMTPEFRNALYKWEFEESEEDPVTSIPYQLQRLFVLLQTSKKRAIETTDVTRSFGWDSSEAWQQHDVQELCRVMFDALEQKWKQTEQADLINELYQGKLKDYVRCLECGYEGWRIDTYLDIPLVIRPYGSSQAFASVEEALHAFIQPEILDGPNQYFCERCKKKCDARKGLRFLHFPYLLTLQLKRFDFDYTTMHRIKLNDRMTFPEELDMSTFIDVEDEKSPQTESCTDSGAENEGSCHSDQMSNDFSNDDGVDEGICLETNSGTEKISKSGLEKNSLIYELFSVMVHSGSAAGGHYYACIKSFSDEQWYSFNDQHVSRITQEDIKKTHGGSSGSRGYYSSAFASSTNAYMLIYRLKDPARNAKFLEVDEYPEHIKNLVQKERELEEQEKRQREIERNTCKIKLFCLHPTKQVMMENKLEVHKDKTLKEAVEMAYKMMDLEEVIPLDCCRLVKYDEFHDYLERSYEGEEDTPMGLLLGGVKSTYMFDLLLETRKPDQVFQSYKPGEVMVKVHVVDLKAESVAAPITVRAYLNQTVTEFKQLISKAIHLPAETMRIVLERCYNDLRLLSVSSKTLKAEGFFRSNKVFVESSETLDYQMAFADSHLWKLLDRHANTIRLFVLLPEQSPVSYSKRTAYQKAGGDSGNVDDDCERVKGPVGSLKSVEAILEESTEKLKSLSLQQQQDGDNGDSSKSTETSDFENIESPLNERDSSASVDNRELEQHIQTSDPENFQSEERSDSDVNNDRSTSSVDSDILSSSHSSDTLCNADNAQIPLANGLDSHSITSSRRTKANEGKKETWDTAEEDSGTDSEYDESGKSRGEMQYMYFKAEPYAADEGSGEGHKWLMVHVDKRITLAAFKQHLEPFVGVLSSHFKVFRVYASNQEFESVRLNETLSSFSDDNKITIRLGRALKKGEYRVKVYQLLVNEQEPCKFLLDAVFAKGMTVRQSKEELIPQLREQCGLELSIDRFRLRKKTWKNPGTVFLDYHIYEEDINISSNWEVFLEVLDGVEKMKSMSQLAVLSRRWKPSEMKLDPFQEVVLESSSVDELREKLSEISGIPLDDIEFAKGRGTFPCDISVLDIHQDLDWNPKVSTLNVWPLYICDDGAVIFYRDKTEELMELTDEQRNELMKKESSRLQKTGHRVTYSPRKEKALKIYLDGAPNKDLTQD

[7] = target: DUBs and other proteins in HEK293 cells (Homo sapiens, UniProt Q9Y5T5); conditions: replicates A-C; for Log2 reporter intensity values: USP16: competition with ABP 2, DMSO substract (FC); for Log2 reporter intensity values: USP16, DMSO subtracted
[8] = 5 μM LDN-57444 (60 min) + 20 nM ABP 2 (10 min), All values
[9] = 5 μM LDN-57444 (60 min) + 20 nM ABP 2 (10 min), DMSO subtracted
[10] = 25 μM LDN-57444 (60 min) + 20 nM ABP 2 (10 min), All values
[11] = 25 μM LDN-57444 (60 min) + 20 nM ABP 2 (10 min), DMSO subtracted

Chain of DUBs and other proteins in HEK293 cells (Homo sapiens, UniProt O00303) (O00303 whole entry): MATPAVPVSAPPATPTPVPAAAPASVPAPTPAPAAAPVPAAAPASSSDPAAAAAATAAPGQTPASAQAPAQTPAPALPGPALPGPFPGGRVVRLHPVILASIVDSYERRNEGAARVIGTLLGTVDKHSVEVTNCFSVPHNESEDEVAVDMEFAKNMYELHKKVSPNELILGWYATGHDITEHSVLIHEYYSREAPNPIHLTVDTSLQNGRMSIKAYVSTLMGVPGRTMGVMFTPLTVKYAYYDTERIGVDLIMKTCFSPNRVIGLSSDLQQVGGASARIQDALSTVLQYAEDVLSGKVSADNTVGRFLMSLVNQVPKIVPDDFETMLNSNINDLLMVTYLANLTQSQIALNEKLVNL
Chain of DUBs and other proteins in HEK293 cells (Homo sapiens, UniProt Q93008) (Q93008 whole entry): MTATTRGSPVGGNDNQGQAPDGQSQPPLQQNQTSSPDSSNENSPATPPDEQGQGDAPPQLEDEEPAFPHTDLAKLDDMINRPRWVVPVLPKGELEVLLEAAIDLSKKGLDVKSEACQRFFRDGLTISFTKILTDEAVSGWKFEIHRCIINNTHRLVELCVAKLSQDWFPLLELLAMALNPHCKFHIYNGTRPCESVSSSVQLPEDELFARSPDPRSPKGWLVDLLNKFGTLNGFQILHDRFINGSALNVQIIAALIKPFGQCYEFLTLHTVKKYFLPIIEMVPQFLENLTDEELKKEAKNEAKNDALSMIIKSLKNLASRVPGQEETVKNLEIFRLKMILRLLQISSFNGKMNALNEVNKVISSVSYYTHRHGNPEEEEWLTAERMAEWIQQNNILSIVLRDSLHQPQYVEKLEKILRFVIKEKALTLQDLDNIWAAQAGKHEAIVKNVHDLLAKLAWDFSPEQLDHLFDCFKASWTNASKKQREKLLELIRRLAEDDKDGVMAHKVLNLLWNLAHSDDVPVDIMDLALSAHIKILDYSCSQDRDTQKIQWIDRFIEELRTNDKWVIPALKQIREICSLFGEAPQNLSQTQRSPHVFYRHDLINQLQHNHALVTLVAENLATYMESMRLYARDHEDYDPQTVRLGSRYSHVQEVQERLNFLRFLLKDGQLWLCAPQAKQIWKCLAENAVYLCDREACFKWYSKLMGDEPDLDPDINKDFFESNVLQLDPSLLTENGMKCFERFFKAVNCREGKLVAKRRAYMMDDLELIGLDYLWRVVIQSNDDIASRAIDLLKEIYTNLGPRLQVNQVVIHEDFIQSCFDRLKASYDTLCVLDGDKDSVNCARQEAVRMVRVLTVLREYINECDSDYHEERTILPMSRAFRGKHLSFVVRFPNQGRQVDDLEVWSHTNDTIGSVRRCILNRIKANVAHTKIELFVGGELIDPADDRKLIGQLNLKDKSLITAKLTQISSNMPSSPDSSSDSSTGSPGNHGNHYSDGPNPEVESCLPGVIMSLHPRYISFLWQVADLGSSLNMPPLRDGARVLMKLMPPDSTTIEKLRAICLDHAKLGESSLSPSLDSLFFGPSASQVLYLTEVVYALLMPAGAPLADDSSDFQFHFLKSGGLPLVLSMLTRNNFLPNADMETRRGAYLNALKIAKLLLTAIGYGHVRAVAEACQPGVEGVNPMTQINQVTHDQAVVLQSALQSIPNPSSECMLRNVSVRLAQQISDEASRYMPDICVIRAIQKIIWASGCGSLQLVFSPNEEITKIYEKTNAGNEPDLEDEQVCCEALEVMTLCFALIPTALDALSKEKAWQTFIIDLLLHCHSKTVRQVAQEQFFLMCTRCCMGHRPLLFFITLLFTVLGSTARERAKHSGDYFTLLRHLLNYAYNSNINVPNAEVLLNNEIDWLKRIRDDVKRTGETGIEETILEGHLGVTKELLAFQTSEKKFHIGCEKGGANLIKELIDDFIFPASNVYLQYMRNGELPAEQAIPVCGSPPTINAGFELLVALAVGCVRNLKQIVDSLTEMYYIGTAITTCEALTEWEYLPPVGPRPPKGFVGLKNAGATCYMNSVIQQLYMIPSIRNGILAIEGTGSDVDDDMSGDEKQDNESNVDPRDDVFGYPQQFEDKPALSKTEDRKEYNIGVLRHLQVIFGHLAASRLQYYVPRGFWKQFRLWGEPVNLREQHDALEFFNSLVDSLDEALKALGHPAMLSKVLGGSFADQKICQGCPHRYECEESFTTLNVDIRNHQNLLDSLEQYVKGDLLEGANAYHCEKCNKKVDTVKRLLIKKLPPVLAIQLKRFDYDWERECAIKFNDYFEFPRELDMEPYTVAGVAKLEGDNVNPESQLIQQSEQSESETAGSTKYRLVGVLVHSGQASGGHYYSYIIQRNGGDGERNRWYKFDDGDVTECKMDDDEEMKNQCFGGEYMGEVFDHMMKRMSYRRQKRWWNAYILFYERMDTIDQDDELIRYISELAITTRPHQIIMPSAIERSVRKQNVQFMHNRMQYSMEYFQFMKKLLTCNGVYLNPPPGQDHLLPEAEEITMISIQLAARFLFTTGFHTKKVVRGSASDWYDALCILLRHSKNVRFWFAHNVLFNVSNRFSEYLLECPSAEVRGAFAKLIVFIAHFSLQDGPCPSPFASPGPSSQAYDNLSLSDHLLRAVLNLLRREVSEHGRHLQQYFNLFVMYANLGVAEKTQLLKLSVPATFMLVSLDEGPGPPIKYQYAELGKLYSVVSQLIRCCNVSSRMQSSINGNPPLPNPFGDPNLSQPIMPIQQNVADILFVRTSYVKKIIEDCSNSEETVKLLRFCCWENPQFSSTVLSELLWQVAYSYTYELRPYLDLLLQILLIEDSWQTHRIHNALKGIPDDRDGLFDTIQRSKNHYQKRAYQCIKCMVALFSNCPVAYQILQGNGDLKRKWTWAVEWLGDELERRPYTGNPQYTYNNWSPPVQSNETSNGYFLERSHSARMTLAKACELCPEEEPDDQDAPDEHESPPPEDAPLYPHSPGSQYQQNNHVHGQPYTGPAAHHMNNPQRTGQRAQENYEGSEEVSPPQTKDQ
Chain of DUBs and other proteins in HEK293 cells (Homo sapiens, UniProt Q96BN8) (Q96BN8 whole entry): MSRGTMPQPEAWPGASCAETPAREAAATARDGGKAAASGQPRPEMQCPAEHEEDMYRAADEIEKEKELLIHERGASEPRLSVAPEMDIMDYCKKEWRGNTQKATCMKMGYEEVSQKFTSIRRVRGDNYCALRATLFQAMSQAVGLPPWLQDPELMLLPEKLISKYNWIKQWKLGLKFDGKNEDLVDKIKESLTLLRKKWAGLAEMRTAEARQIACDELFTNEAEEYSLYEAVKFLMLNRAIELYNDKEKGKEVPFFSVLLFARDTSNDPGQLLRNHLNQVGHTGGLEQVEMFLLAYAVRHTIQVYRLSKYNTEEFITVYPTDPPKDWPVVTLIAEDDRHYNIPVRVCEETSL
Chain of DUBs and other proteins in HEK293 cells (Homo sapiens, UniProt Q9Y5T5) (Q9Y5T5 whole entry): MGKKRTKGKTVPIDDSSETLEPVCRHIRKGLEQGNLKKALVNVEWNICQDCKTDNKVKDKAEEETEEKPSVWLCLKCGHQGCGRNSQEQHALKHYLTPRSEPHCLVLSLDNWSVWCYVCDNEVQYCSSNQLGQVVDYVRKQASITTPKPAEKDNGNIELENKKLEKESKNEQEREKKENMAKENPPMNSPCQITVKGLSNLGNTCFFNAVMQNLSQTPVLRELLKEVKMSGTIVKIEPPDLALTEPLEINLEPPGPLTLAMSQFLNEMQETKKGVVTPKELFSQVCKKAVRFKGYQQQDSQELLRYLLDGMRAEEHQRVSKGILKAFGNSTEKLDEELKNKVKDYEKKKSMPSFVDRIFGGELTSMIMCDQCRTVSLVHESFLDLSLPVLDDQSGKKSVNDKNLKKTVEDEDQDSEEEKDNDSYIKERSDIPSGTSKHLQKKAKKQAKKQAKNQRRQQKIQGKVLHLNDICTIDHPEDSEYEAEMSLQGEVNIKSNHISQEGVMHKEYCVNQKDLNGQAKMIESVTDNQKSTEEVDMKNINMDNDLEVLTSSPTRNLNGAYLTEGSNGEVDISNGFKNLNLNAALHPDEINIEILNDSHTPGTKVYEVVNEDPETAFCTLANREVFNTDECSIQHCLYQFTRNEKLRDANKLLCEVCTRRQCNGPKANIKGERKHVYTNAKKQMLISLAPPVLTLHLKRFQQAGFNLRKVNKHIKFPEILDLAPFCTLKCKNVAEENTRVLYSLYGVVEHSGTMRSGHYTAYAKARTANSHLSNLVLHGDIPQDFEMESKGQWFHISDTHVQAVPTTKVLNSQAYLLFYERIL
Chain of DUBs and other proteins in HEK293 cells (Homo sapiens, UniProt Q7L5N1) (Q7L5N1 whole entry): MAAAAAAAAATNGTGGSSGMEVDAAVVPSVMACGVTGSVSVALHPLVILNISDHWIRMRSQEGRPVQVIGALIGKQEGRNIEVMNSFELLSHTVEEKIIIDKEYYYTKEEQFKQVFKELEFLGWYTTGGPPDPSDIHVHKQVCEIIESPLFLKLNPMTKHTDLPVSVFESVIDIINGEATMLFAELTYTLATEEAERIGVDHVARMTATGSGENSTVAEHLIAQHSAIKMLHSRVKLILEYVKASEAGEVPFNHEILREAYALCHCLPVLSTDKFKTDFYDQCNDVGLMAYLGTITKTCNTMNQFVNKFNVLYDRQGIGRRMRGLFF

SMILES: CC(=O)O/N=C1\C(=O)N(Cc2cc(Cl)ccc2Cl)c2ccc(Cl)cc21 [LDN]
- Log2 reporter intensity values, EIF3F [1, 8]: 0.1312 and 0.08738 and -0.0291
- Log2 reporter intensity values, EIF3F [1, 9]: 0.1407 and 0.09693 and -0.01955
- Log2 reporter intensity values, EIF3F [1, 10]: 0.03265 and -0.09761 and -0.112
- Log2 reporter intensity values, EIF3F [1, 11]: 0.0422 and -0.08806 and -0.1024
- Log2 t-test Difference ([1]; EIF3F, LDN - 5 μM): -0.01801
- Log2 reporter intensity values ([1]; EIF3F, LDN at 5 μM, DMSO subtracted): 0.1407 and 0.09693 and -0.01955
- Log2 reporter intensity values ([1]; EIF3F, LDN at 25 μM, DMSO subtracted): 0.0422 and -0.08806 and -0.1024
- Log2 reporter intensity values ([1]; EIF3F, LDN_5 μM, DMSO subtracted): 0.102 and 0.06908 and -0.01388
- Log2 reporter intensity values ([1]; EIF3F, LDN_25 μM, DMSO subtracted): 0.02927 and -0.05963 and -0.06897
- Log2 reporter intensity values: EIF3F ([1]; LDN at 5 μM): 1.102 and 1.069 and 0.9865
- Log2 reporter intensity values: EIF3F ([1]; LDN at 25 μM): 1.03 and 0.9408 and 0.9315
- Log2 reporter intensity values: PSMD7 ([2]; LDN at 5 μM): 1.218 and 1.097 and 1.111
- Log2 reporter intensity values: PSMD7 ([2]; LDN at 25 μM): 1.26 and 1.205 and 1.158
- Log2 reporter intensity values ([2]; LDN at 5 μM): 0.2849 and 0.1342 and 0.1516
- Log2 reporter intensity values ([2]; LDN at 25 μM): 0.3338 and 0.2689 and 0.2118
- Log2 reporter intensity values ([2]; LDN_5 μM): 0.2157 and 0.09493 and 0.1083
- Log2 reporter intensity values ([2]; LDN_25 μM): 0.2577 and 0.2023 and 0.1556
- Log2 reporter intensity values, COPS6 [3, 8]: 0.1306 and 0.0287 and 0.0623
- Log2 reporter intensity values, COPS6 [3, 9]: 0.1181 and 0.01629 and 0.04989
- Log2 reporter intensity values, COPS6 [3, 10]: -0.04892 and -0.02797 and -0.1172
- Log2 reporter intensity values, COPS6 [3, 11]: -0.06133 and -0.04038 and -0.1296
- Log2 t-test Difference ([3]; COPS6, LDN - 5 μM): 0.0178
- Log2 reporter intensity values ([3]; COPS6, LDN at 5 μM, DMSO subtracted): 0.1181 and 0.01629 and 0.04989
- Log2 reporter intensity values ([3]; COPS6, LDN at 25 μM, DMSO subtracted): -0.06133 and -0.04038 and -0.1296
- Log2 reporter intensity values ([3]; COPS6, LDN_5 μM, DMSO subtracted): 0.08523 and 0.01124 and 0.03507
- Log2 reporter intensity values ([3]; COPS6, LDN_25 μM, DMSO subtracted): -0.04173 and -0.02772 and -0.08603
- Log2 reporter intensity values: COPS6 ([3]; LDN at 5 μM): 1.085 and 1.011 and 1.035
- Log2 reporter intensity values: COPS6 ([3]; LDN at 25 μM): 0.9584 and 0.9724 and 0.9141
- Log2 reporter intensity values: USP9X;USP9Y ([4]; LDN at 5 μM): 0.9588 and 0.9416 and 0.9642
- Log2 reporter intensity values: USP9X;USP9Y ([4]; LDN at 25 μM): 0.918 and 0.963 and 0.9662
- Log2 reporter intensity values ([4]; LDN at 5 μM): -0.06063 and -0.08675 and -0.05259
- Log2 reporter intensity values ([4]; LDN at 25 μM): -0.1235 and -0.05434 and -0.04956
- Log2 reporter intensity values ([4]; LDN_5 μM): -0.04118 and -0.05839 and -0.03582
- Log2 reporter intensity values ([4]; LDN_25 μM): -0.08207 and -0.03699 and -0.0338
- Log2 reporter intensity values: OTULIN ([5]; LDN at 5 μM): 0.9147 and 1.064 and 1.028
- Log2 reporter intensity values: OTULIN ([5]; LDN at 25 μM): 0.944 and 1.042 and 0.9874
- Log2 reporter intensity values ([5]; LDN at 5 μM): -0.1287 and 0.0891 and 0.03957
- Log2 reporter intensity values ([5]; LDN at 25 μM): -0.08321 and 0.05912 and -0.01826
- Log2 reporter intensity values ([5]; LDN_5 μM): -0.08587 and 0.06318 and 0.02728
- Log2 reporter intensity values ([5]; LDN_25 μM): -0.05657 and 0.0413 and -0.01311
- Log2 reporter intensity values: USP47 ([6]; LDN at 5 μM): 0.9979 and 0.9926 and 1.029
- Log2 reporter intensity values: USP47 ([6]; LDN at 25 μM): 1.08 and 1.079 and 1.007
- Log2 reporter intensity values ([6]; LDN at 5 μM): -0.003055 and -0.01068 and 0.04147
- Log2 reporter intensity values ([6]; LDN at 25 μM): 0.1109 and 0.1092 and 0.01034
- Log2 reporter intensity values ([6]; LDN_5 μM): -0.002223 and -0.007484 and 0.02905
- Log2 reporter intensity values ([6]; LDN_25 μM): 0.07978 and 0.07849 and 0.007088
- Log2 reporter intensity values: USP16 ([7]; LDN at 5 μM): 1.149 and 1.181 and 1.095
- Log2 reporter intensity values: USP16 ([7]; LDN at 25 μM): 1.216 and 1.053 and 1.129
- Log2 reporter intensity values ([7]; LDN at 5 μM): 0.2004 and 0.2395 and 0.1308
- Log2 reporter intensity values ([7]; LDN at 25 μM): 0.2823 and 0.07456 and 0.1753
- Log2 reporter intensity values ([7]; LDN_5 μM): 0.1468 and 0.1784 and 0.09274
- Log2 reporter intensity values ([7]; LDN_25 μM): 0.2139 and 0.05085 and 0.127
